Values of other authors as cited in US5817628A, “Dynorphin a suppression of natural killer cell activity” (The Rockefeller University, priority 1992, dated 1998).

test system: NK cells; settings: reported by other investigators

| Compound | effect on NK activity in vitro (literature) |
| --- | --- |
| CN1CC[C@]23c4c5ccc(O)c4O[C@H]2[C@@H](O)C=C[C@H]3[C@H]1C5 [Morphine] | enhanced NK activity in one study |
| CCC(=O)C(CC(C)N(C)C)(c1ccccc1)c1ccccc1 (stereo not shown) [methadone] | observed in vitro only at methadone concentrations many orders of magnitude higher than those observed during any clinical use of methadone |
| Met-enkephalin | appears to enhance NK activity |
| β-endorphin (YGGFMTSEKSQTPLVTLFKNAIIKNAYKKGE; Beta-endorphin; UniProt P01189 237-267, looked up) [endogenous opioid] | increases NK cell activity in vitro |
